Source: ChEMBL document CHEMBL1131602 (J Med Chem, 1998)

Key:
[1] = target: T1, Bifunctional dihydrofolate reductase-thymidylate synthase (Plasmodium falciparum K1, UniProt P13922); experiment: Binding affinity was evaluated as inhibition of mutant (C59R + S108N) Plasmodium falciparum DHFR-TS.
Target sequence in this assay (P13922 whole entry): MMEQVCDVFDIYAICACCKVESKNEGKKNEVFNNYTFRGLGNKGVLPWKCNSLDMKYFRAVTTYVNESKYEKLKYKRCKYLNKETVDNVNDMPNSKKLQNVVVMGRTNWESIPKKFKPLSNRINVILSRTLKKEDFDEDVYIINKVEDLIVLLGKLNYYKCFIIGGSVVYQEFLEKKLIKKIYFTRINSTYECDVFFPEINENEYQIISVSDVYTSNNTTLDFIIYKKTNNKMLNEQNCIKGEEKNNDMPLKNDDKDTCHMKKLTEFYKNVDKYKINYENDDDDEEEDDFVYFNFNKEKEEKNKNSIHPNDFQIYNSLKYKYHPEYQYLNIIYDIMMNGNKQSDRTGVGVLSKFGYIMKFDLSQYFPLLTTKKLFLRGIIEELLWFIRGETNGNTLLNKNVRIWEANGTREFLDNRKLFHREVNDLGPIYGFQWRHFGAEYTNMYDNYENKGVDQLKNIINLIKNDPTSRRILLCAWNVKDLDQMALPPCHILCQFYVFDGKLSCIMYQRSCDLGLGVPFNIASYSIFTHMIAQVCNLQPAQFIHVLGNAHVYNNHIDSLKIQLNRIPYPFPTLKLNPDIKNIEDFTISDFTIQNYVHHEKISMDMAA

[2] = Ratio of inhibitions against mutant and wild type (WT) Plasmodium falciparum DHFR-TS.
[3] = target: T1, Bifunctional dihydrofolate reductase-thymidylate synthase; experiment: Binding affinity was evaluated as inhibition of recombinant wild type (WT) Plasmodium falciparum DHFR-TS.
Target sequence in this assay (P13922 whole entry): as above

[4] = target: T1, Bifunctional dihydrofolate reductase-thymidylate synthase; experiment: Inhibitory activity against recombinant wild type (WT) Plasmodium falciparum DHFR-TS
Target sequence in this assay (P13922 whole entry): as above

[5] = target: T1, Bifunctional dihydrofolate reductase-thymidylate synthase; experiment: Inhibitory activity against mutant Plasmodium falciparum DHFR-TS
Target sequence in this assay (P13922 whole entry, looked up): as the sequence (P13922 whole entry) above

Plasmodium falciparum [6] = experiment: In vitro inhibition of Plasmodium falciparum K1 (S108N + C59R) culture; type: functional, organism-based
Plasmodium falciparum [7] = experiment: In vitro inhibition of Plasmodium falciparum HB3 (S108N) culture; type: functional, organism-based

Q: With `NC(=O)c1ccc[n+]([C@H]2O[C@@H](COP(=O)([O-])OP(=O)(O)OC[C@H]3O[C@@H](n4cnc5c(N)ncnc54)[C@H](OP(=O)(O)O)[C@@H]3O)[C@H](O)[C@@H]2O)c1` [NICOTINAMIDE ADENINE DINUCLEOTIDE PHOSPHATE] as the molecule, how does the Ki [1] read?
A: Its Ki is 14.5 nM.

Q: What about the Ratio [2] of the same molecule?
A: The Ratio was 3.09.

Q: What about the Ki [3] of the same molecule?
A: Its Ki is 4.7 nM.

Q: Which results are given for `CC1(C)N=C(N)N=C(N)N1c1ccc(Cl)cc1` [CYCLOGUANIL]?
A: Ki [1]: 82.1 nM; Ratio [2]: 31.5; Ki [3]: 2.6 nM

Q: With `CCc1nc(N)nc(N)c1-c1cccc(OC)c1` as the molecule, how does the IC50 [4] read?
A: The IC50 was 9.3 nM.

Q: And the Ki [1]?
A: Its Ki is 14 nM.

Q: What about the IC50 [5] of the same molecule?
A: The IC50 was 73 nM.

Q: And the Ki [5]?
A: The Ki was 14 nM.

Q: What about the Ratio [2] of the same molecule?
A: The Ratio was 13.1.

Q: And the IC50 (Plasmodium falciparum [6])?
A: The IC50 was 3.7 nM.

Q: What about the IC50 (Plasmodium falciparum [7]) of the same molecule?
A: Its IC50 is 0.2 nM.

Q: And the Ki [3]?
A: Its Ki is 1.07 nM.

Q: Which IC50 [4] does the source give for `CCc1nc(N)nc(N)c1-c1cccc(Cl)c1` here?
A: Its IC50 is 2.7 nM.

Q: And the Ki [1]?
A: The Ki was 2.4 nM.

Q: What about the IC50 [5] of the same molecule?
A: Its IC50 is 12.7 nM.

Q: And the Ratio [2]?
A: The Ratio was 8.

Q: And the Ki [3]?
A: Its Ki is 0.3 nM.

Q: Which results are given for `CCc1nc(N)nc(N)c1-c1ccc(Cl)cc1` [PYRIMETHAMINE]?
A: IC50 (Plasmodium falciparum [6]): 10.2 nM; IC50 (Plasmodium falciparum [7]): 1.2 nM
